Measurements published in patent US20240299505A1, “COMPOSITION FOR IMPROVING, PREVENTING OR TREATING INFLAMMATORY BOWEL DISEASE COMPRISING NAMPT-DERIVED PEPTIDE AS ACTIVE INGREDIENT” (Industry-University Cooperation Foundation Hanyang …, priority 2023, published 2024).

Key:
[1] = system: NLRP3 inflammasome signal 1; test: NLRP3 inflammasome signal 1 in LPS-treated BMDMs (IB, FACS ROS, cytokine ELISA); format: cell-based, mice; conditions: for production of cytokines (NF-κB-induced): ELISA of supernatants; for generation of ROS: FACS
Method: (§1) FIG. 4 confirms that NAMPT-derived peptides inhibit activation of signal 1 and 2 of NLRP3. Specifically, (A-C) BMDMs were stimulated with LPS for 4 hours and pretreated with rNAMPT for 1 hour (A, B) or 18 hours (C). (A) WCLs were used for IB with αIkB-α, αP-IkB-α, or αActin. (B) FACS analysis for H2O2 (probe for 2′,7′-dichlorofluorescin diacetate) or O^2− (probe for dihydroethidium). Quantitative analysis (upper) of mean fluorescence intensities of H2O2 and O^2− and NADPH oxidase activity (lower), (C) Culture supernatants (SN) were harvested and analyzed for cytokine ELISA. (D, E) LPS-primed BMDMs were treated with rNAMPT for 1 hour and then activated with ATP for 30 minutes. (D) ELISA for IL-1β and IL-18. (E) IB in SN with αIL-1β p17, αIL-18 p18, or αCasp1 p10 and IB of WCL with αPro-IL-1β, αPro-IL-18, αPro-Casp1, or αActin. […] Data come from three independent experiments that yielded similar results. (B-D) Data are provided as mean±SD of three experiments. Significance difference compared to LPS+PBS (*p<0.05; **p<0.01; ***p<0.001);
(§2) FIG. 5 illustrates results confirming an effect of TAT-NAMPT or NAMPT peptide on inflammation. Specifically, (A) BMDMs were stimulated with LPS (100 ng/ml) for 18 hours and pretreated with rNAMPT for 1 hour. Culture supernatants were collected and analyzed for cytokine ELISA. (B) LPS-primed BMDMs were treated with rNAMPT for 1 hour and then activated with nigericin for 30 minutes and DSS for 24 hours. ELISA for IL-1B and IL-18. […] The shown data are the mean±SD of three experiments. Significant difference comparing LPS+PBS (*p<0.05; **p<0.01; ***p<0.001);
Primary bone marrow-derived macrophages (BMDMs) were harvested from mice and cultured in DMEM in the presence of M-CSF (R&D Systems, 416-ML) for 3 to 5 days. HEK293T cells (ATCC-11268; American Type Culture Collection) were cultured in DMEM (Gibco) containing 10% FBS (Gibco), nonessential amino acids, sodium pyruvate, streptomycin (100 μg/mL) and penicillin G (100 IU/mL).
Polypeptides were separated by SDS-polyacrylamide gel electrophoresis and then transferred to a PVDF membrane for immunoblotting (IB) (Bio-Rad, Hercules, CA, USA). For immunodetection, specific antibodies were required, and Chemiluminescence (ECL; Millipore, MA, USA) was used to visualize an antibody bound to a target. In addition, a Vilber chemiluminescence analyzer was used to detect the antibody (Fusion SL3; Vilber Lourmat, Colégien, France).
Flow cytometry was used to quantify intracellular ROS levels. The cells were cultured in a serum-free medium and stained with 2 μM dihydroethidium (DHE for O^2−; Calbiochem) or 1 μM 2′,7′-dichlorodihydrofluorescein diacetate (H2DCFDA for H2O2; Calbiochem) as a redox-sensitive dye. mAbs were incubated at 4° C. for 20 to 30 minutes to determine cell surface protein expression, and cells were fixed using a Cytofix/Cytoperm Solution (BD Biosciences), and in a specific case, mAb incubation was performed to detect intracellular proteins. The used mAb clones were the following: ITGA6 (GoH3, BD Pharmingen™) and ITGB1 (HMβ1-1, BD Pharmingen™). The cells were washed completely and quickly with pulse spinning before being analyzed in a FACS Calibur (BD Biosciences, San Jose, CA, USA). CellQuest software (BD Biosciences) was used to visualize the data, and FlowJo software was used to analyze the data (Tree Star, Ash-land, OR, USA).
TNF-α, IL-6, IL-1β and IL-18 levels were measured in cell culture supernatants and mouse serum using the BD OptEIA ELISA system (BD Pharmingen). All experiments were performed according to the manufacturer's protocol.
To determine the effect of NAMPT peptides related to signal 1 for the NLRP3 inflammasome in macrophages, LPS-treated BMDMs were exposed to different concentrations of NAMPT peptides (aa 57-65, aa 52-56, or aa 52-65). […] Thus, the TAT-NAMPT peptides were less likely to inhibit the interaction of eNAMPT with TLR4 or CYBB.

[2] = system: NLRP3 inflammasome signal 2; test: NLRP3 inflammasome signal 2 in LPS-primed BMDMs activated with ATP, nigericin or DSS (ELISA, IB); format: cell-based, mice
Method: as §1, §2
Primary bone marrow-derived macrophages (BMDMs) were harvested from mice and cultured in DMEM in the presence of M-CSF (R&D Systems, 416-ML) for 3 to 5 days. […]
TNF-α, IL-6, IL-1β and IL-18 levels were measured in cell culture supernatants and mouse serum using the BD OptEIA ELISA system (BD Pharmingen). […]

TLR4 = TLR4 (Homo sapiens, UniProt O00206); test: Fluorescence binding titration of labeled TLR4 with unlabeled NAMPT; conditions: fluorescently labeled TLR4 titrated with unlabeled NAMPT, curve fit; read-out: Kd of NAMPT-TLR4 interaction
Chain of TLR4 (O00206 24-839, species assumed): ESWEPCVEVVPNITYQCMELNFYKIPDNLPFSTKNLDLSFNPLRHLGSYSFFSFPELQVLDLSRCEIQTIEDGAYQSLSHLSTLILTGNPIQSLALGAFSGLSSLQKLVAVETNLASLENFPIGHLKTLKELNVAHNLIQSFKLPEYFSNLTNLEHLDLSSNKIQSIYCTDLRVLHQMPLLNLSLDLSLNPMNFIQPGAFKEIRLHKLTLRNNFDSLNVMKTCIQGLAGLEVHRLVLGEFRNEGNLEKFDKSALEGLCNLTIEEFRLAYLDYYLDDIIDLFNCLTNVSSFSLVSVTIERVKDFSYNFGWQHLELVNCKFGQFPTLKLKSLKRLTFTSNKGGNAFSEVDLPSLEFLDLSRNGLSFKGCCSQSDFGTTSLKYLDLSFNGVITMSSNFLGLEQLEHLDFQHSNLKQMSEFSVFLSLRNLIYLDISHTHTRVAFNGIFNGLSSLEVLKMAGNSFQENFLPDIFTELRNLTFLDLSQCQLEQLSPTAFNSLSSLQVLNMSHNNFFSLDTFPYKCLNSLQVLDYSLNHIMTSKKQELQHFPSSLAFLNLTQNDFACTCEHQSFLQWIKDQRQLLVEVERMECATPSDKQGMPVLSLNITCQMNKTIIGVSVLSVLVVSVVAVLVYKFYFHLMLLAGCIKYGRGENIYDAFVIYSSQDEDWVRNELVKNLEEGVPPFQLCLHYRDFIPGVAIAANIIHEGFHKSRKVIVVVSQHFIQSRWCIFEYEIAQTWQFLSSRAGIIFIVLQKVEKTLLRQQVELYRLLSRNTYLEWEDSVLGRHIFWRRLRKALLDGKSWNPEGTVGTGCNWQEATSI

CYBB = biological target: T1, CYBB (Homo sapiens, UniProt P04839); test: Fluorescence binding titration of labeled CYBB with unlabeled NAMPT; conditions: fluorescently labeled CYBB titrated with unlabeled NAMPT, curve fit; read-out: Kd of NAMPT-CYBB interaction
T1 sequence (P04839 1-570): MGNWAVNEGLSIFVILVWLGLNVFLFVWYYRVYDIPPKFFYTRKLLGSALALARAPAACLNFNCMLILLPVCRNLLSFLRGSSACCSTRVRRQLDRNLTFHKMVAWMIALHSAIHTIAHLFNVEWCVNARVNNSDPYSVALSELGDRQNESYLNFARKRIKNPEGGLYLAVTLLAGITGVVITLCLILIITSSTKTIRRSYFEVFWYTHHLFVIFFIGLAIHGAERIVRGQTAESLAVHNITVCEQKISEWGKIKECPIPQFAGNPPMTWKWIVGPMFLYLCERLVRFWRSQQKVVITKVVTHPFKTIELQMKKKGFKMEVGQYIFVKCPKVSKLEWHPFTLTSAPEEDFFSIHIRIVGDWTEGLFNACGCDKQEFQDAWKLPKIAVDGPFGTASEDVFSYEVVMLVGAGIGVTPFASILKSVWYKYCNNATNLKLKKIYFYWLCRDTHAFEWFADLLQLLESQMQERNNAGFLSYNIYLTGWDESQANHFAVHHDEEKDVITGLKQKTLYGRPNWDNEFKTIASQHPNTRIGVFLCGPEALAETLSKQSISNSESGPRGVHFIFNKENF

NAMPT-TLR4 binding = test: Co-immunoprecipitation of Myc-NAMPT with Flag-TLR4 in 293T cells treated with TAT-NAMPT peptides; format: cell-based; conditions: Myc-NAMPT and Flag-TLR4, peptide 6 hours, 5 μM or 1, 5, 10 μM
Method: (§3) FIG. 3 illustrates experimental design and results for identifying an essential region of NAMPT for binding to TLR4 and CYBB. Specifically, (A) Schematic diagram (upper) of the structures of NAMPT and TLR4. 293T cells were transfected with GST-NAMPT or its mutants and Flag-TLR4. GST pulldown was performed with 293T cells and then IB was performed using αFlag. WCLs were used for IB using αGST, αFlag, or αActin (lower, left in A). 293T cells were transfected with Flag-TLR4 or its mutants and Myc-NAMPT. The 293T cells were used for IP with αMyc, followed by IB with αFlag. WCLs were used for IB using αMyc, αFlag or αActin (lower, right in A). (B) 293T cells were transfected with Myc-NAMPT and Flag-TLR4 and treated with NAMPT peptide or its mutants for 6 hours (5 μM, left; 1, 5, 10 μM, right). The 293T cells were used for IP with αFlag, followed by IB with αMyc. WCLs were used for IB using αMyc, αFlag, or αActin. (C) Schematic diagram (upper) of the structures of CYBB. 293T cells were transfected with GST-NAMPT or its mutants and V5-CYBB (lower, left in C). The 293T cells were transfected with GST-CYBB or its mutants and Myc-NAMPT (lower, right in C). The 293T cells were subjected to GST pull-down, followed by IB with αV5 or αMyc. WCLs were used for IB using αGST, αMyc, a V5 or αActin. […]

NAMPT-CYBB binding = biological target: T2, NAMPT-CYBB binding (Homo sapiens, UniProt P04839); test: Co-immunoprecipitation of Myc-NAMPT with V5-CYBB in 293T cells treated with TAT-NAMPT peptides; format: cell-based; conditions: Myc-NAMPT and V5-CYBB, peptide 6 hours, 5 μM or 1, 5, 10 μM
T2 construct: The full-length (FL) CYBB and mutant plasmids were constructed as follows; expressed in transfected cells; host or cells: HEK293T (293T)
T2 sequence (P04839 1-570): T1 sequence (P04839 1-570)
Method: as §3

Substance	activation of NF-κB [1]	production of cytokines (NF-κB-induced) [1]	generation of ROS [1]	also measured
NAMPT peptides aa 52-56: peptide of amino acids 52 to 56 of NAMPT (SEQ ID NO: 1), binds CYBB (VKYEE; listed as Homo sapiens)	partially inhibited	partially inhibited	partially inhibited	
NAMPT peptides aa 52-65: peptide of amino acids 52 to 65 of NAMPT (SEQ ID NO: 1), binds TLR4 and CYBB (VKYEETVFYGLQYI; listed as Homo sapiens)		markedly inhibited	markedly inhibited	action of eNAMPT on NLRP3 inflammasome signal 2 ([2]; FIG. 4D lower, FIG. 4E right): specifically inhibited the action of eNAMPT; ATP-induced caspase-1 cleavage ([2]; LPS-primed BMDMs, ATP 30 minutes): efficiently inhibited; maturation of IL-1β and IL-18 ([2]; LPS-primed BMDMs, ATP, nigericin or DSS stimulation): efficiently inhibited
NAMPT peptides aa 57-65: peptide of amino acids 57 to 65 of NAMPT (SEQ ID NO: 1), binds TLR4 (TVFYGLQYI; listed as Homo sapiens)	partially inhibited	partially inhibited	partially inhibited	
Nicotinamide phosphoribosyl transferase [NAMPT]				Kd (TLR4): 219 nM; Kd (CYBB): 896 nM
TAT-NAMPT (aa 40-69) (GRKKRRQRRRPQREKKTENSKLRKVKYEETVFYGLQYILNKY)				binding of NAMPT to TLR4 (IP/IB) (NAMPT-TLR4 binding): reduced the binding of NAMPT to TLR4; binding of NAMPT to CYBB (IP/IB) (NAMPT-CYBB binding): bound to CYBB
